The target in series [1] is T1, TGF-β mediated by TSP-1 (purified human platelet TSP-1 + recombinant latent TGF-β1) (Homo sapiens, UniProt P07996).
T1 construct: purified human platelet TSP-1 was incubated with compounds; tissue R&D Systems (latent TGF-β1 only); host or cells: human platelets (TSP-1)
Put plainly: In vitro ELISA assay: TSP-1 incubated with compound, then with recombinant latent TGF-β1; active TGF-β detected. In kind it is biochemical. As to conditions: read-out: Inhibition of TGF-β mediated by TSP-1 in vitro Elisa assay at [Inhibitor]; for inhibition at 0.0001 µM: At 100 pM. The protocol:
For initial screening, an ELISA-based screening assay was used in which purified human platelet TSP-1 was incubated with compounds and then incubated with recombinant latent TGF-β1 (purchased from R&D Systems). Activity is measured in a commercially available ELISA which detects only active TGF-β (R &D Systems). Activity in the presence of compounds is compared to activity in TSP-1+latent TGF-β samples without inhibitory compounds (Lu et al. (2016) Am J Pathol 186:678-690).
For orientation: In an ELISA, binding on a coated surface is turned into a signal by an enzyme label.

For a further series, the system named is TGF-β mediated by TSP-1. Put plainly: Cell-based assay of inhibition of TGF-β mediated by TSP-1. More on the design: species or system human. Conditions: for inhibition at 0.01 µM / inhibition at 0.1 µM / inhibition at 1 µM / IC50: Homo sapiens; for inhibition at 0.01 µM: At 10 nM; for inhibition at 0.01 µM / inhibition at 0.1 µM / inhibition at 1 µM: read-out: Inhibition of TGF-β mediated by TSP-1 cell-based assay at [Inhibitor]; for inhibition at 0.1 µM: At 100 nM; for IC50: assay not stated, given only for compounds tested in the cell-based assay. The protocol: To specifically assess activity of compounds in liver cell specific assays, two different assays were used. In the first, human hepatic stellate cells were incubated overnight in low serum media to condition the media with secreted latent […]. Purified TSP1 either preincubated with compounds or not will be added to cultures and then conditioned media harvested to assess TGF-β biological activity using the R&D Systems ELISA as above. Hepatic stellate cells will be purchased from commercial sources. Although hepatic stellate cells are the primary drivers of liver fibrosis, conditions which drive liver fibrosis can induce hepatocyte TSP-1 expression which can then have paracrine effects on controlling TGF-β activation in hepatic stellate cells. Furthermore, TGF-β can negatively impact hepatocyte regeneration following injury. Therefore, the ability of compounds to block TSP-1 activation of latent TGF-β will also be assessed in cultured primary human hepatocytes following the protocol described for the hepatic stellate cells. Similar approaches have successfully been used to screen compounds which inhibit human myeloma cell derived latent TGF-β activation by TSP-1 (Lu et al. (2016) Am J Pathol 186:678-690).

A further series has as its system CAG-heparanase MM cells. Kind of series: PAI-1 promoter luciferase reporter assay of conditioned media of TSP1-treated CAG-heparanase MM cells. The format is cell-based, human. Conditions: cells treated with 67 nM TSP1. How it is done:
Referring to FIG. 4B, CAG-heparanase MM cells were treated with 67 nM TSP1 and conditioned media were assessed for TGF-β activity using PAI-1 promoter luciferase reporter assay. There is ˜[…] TGF-β in the added TSP1 and LSKL blocks 80% of the CAG-heparanase MM cell generated TGF-β activity.

A further series deals with CAG human myeloma cells. Put plainly: SCID-tibia MM model, tumor burden (bioluminescence, serum Ig kappa). In kind it is in vivo, SCID mice. As to conditions: LSKL 30 mg/kg/day by subcutaneous osmotic pump, 2 and 4 weeks. How it is done: Referring to FIG. 2A and FIG. 2B, CAG human myeloma cells were injected into the intratibial marrow space of SCID mice. After 2 weeks, tumors were imaged by bioluminescence and serum 1 g kappa levels measured. Mice were randomized to equalize 1 g kappa levels. Osmotic pumps were implanted subcutaneously to deliver saline or LSKL peptide (30 mg/kg/day) (n=10/group). Tumors were imaged and serum 1 g kappa levels measured at 2 and 4 weeks of treatment. Data are means±SEM. Bioluminescence; *p=0.019 ANOVA, serum kappa; p=0.037, t-test.

The test system of another series is phospho-Smad 2. Put plainly: Phospho-Smad 2 staining of tibiae from mice injected with CAG MM cells. As to conditions: 4 weeks of treatment. In kind it is in vivo. How it is done:
Referring to FIG. 3A-C, at 4 weeks of treatment, tibiae from mice injected with CAG MM cells were fixed and stained with antibody to phosphor-Smad 2. Left panels are from 2 different saline treated mice and the right panels are from LSKL-treated mice. Pixels of brown staining were quantified in 4 fields per animal. 5-6 animals per group were analyzed. Data are the percent area exceeding the threshold for positive staining (FIG. 3A). […] P=0.004.

For a further series, the system named is MSCs. Kind of series: Osteoblast differentiation by MSCs under osteogenic conditions (alkaline phosphatase staining, Runx2 RT-PCR). In kind it is cell-based. Conditions: osteogenic media, TSP1 10 nM + LSKL 25 μM, 20 days. How it is done: Referring to FIG. 1A, MSCs were grown to confluence in basal (control) media. Cells were treated with control growth media, osteogenic media, or osteogenic media with TGF-β (5 ng/mL) or stripped TSP1 (10 nM), TSP1+LSKL (25 μM), TSP1+SLLK (25 μM control peptide), or TSP1+anti-TGF-β (5 μg/mL). Cultures were fed daily for 20 days. Alkaline phosphatase staining is representative of triplicate wells.
Referring to FIG. 1B, cells were treated every 2 days for 20 days with MSC growth media (control) or osteogenic media with TGF-β (5 ng/mL) or TSP1 (10 nM)±daily treatment with 25 μM LSKL or SLLK peptides. RNA isolated from cells was used for RT-PCR analysis of Runx2 expression. Samples were run in duplicate and each experimental treatment in triplicate.

A further series concerns CAG MM cells. Kind of series: Phospho-Smad 2 immunoblot in TSP1-treated CAG MM cells. In kind it is cell-based, human. As to conditions: 30 nM TSP1 for 6 hrs ± LSKL. How it is done: Referring to FIG. 4A, CAG MM cells were incubated with 30 nM TSP1 for 6 hrs±LSKL or SLLK. Cell lysates were immunoblotted for phosphor-Smad 2. Blots were stripped and reprobed for total Smad 2/3 and GAPDH. Results are normalized to GAPDH (untreated controls=1). LSKL reduces TSP1 induced treatment or luciferase activity in cells treated with active TGF-β (not shown).
(Immunoblotting shows a protein as a band on a membrane.)

The conditions of series [2]: cited from earlier work.
For series [3] the following is noted: 30 mg/kg i.p., 3 times weekly, 15 weeks; cited from earlier work.

T1 sequence (P07996 19-1170): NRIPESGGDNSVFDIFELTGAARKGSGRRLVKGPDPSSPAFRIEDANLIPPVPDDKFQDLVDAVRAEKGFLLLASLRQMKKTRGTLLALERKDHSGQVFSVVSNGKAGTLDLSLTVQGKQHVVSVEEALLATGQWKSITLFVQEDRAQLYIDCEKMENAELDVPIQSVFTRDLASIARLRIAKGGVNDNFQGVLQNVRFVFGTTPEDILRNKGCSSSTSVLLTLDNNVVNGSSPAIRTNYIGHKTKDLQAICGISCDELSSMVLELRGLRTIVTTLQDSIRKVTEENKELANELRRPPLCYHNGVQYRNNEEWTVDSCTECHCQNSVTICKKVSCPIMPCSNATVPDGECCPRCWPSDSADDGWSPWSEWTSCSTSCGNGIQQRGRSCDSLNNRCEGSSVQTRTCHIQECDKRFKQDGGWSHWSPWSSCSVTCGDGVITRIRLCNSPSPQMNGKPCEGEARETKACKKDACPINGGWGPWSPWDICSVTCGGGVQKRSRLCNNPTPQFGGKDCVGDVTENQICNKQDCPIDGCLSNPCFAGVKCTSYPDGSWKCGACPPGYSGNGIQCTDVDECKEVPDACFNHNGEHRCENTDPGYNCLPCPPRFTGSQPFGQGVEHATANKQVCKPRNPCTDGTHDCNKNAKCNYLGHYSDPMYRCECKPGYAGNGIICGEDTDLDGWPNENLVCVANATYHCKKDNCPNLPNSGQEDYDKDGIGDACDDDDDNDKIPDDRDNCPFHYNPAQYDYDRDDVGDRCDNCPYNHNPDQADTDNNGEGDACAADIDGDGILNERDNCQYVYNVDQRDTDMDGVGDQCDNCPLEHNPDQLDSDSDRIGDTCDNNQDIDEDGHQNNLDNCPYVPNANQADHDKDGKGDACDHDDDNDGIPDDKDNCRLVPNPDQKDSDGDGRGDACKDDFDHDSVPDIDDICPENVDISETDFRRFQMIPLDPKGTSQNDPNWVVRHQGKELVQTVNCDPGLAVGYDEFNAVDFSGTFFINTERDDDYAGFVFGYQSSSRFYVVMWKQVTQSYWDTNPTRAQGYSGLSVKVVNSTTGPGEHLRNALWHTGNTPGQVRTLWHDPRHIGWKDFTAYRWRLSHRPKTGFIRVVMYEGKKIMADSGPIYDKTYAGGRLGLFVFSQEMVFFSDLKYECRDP

As to `NCCCC[C@@H]1NC(=O)CNC1=O` [Compound 1, (S)-3-(4-aminobutyl)piperazine-2,5-dione], in series [1], the inhibition at 10 pM was -67%, the inhibition at 50 pM is -4% and the inhibition at 0.0001 µM was 37%. In the series on TGF-β mediated by TSP-1, the inhibition at 0.01 µM is 38%, the inhibition at 0.1 µM is 59% and the inhibition at 1 µM stood at 74.5%.
For the compound `CC1(C)NC(=O)[C@H](CCCCN)NC1=O` [Compound 2, (S)-6-(4-aminobutyl)-3,3-dimethylpiperazine-2,5-dione], in series [1], the inhibition at 10 pM was found to be 73%, the inhibition at 50 pM was found to be 91% and the inhibition at 0.0001 µM came out at 89%. Further, in the series with TGF-β mediated by TSP-1, the inhibition at 0.01 µM is 38%, the inhibition at 0.1 µM was found to be 71% and the inhibition at 1 µM was 76%.
For the compound `Nc1ccc(C[C@@H]2NC(=O)CNC2=O)cc1` [Compound 3, (S)-3-(4-aminobenzyl)piperazine-2,5-dione], in series [1], the inhibition at 10 pM worked out at 66%, the inhibition at 50 pM was 68% and the inhibition at 0.0001 µM came out at 90%. In the series with TGF-β mediated by TSP-1, the inhibition at 0.01 µM came out at 13%, the inhibition at 0.1 µM came out at 32% and the inhibition at 1 µM came out at 75%.
Turning to `CC1(C)NC(=O)[C@H](Cc2ccc(N)cc2)NC1=O` [Compound 4, (S)-6-(4-aminobenzyl)-3,3-dimethylpiperazine-2,5-dione], in the series with TGF-β mediated by TSP-1, the inhibition at 0.01 µM worked out at 80%, the inhibition at 0.1 µM stood at 78%, the inhibition at 1 µM is 83% and half-maximal inhibition (IC50) was put at 1 nM.
Taken in the same sequence, the figures for `CC1(C)NC(=O)[C@H](Cc2cccc(CN)c2)NC1=O` [Compound 6] were 75%, 96%, 97% and 1 nM.
For the compound `NCCCC[C@@H]1NC(=O)C2(CCCC2)NC1=O` [Compound 7], in the series on TGF-β mediated by TSP-1, the inhibition at 0.01 µM was 72%, the inhibition at 0.1 µM was 89%, the inhibition at 1 µM was found to be 92% and the IC50 was 0.85 nM.
Taken in the same sequence, the figures for `Nc1ccc(C[C@@H]2NC(=O)C3(CCC3)NC2=O)cc1` [Compound 8, (S)-7-(4-aminobenzyl)-5,8-diazaspiro[3.5]nonane-6,9-dione] were 62%, 89%, 92% and 4 nM.
In the case of `Nc1ccc(C[C@@H]2NC(=O)C3(CCCC3)NC2=O)cc1` [Compound 9, (S)-8-(4-aminobenzyl)-6,9-diazaspiro[4.5]decane-7,10-dione], in the series with TGF-β mediated by TSP-1, the inhibition at 0.01 µM came to 40%, the inhibition at 0.1 µM turned out to be 92%, the inhibition at 1 µM is above 100% and the IC50 was determined as 11 nM.
Take `CC1(C)NC(=O)[C@@H](CCCCN)NC1=O` [Compound 10, (R)-6-(4-aminobutyl)-3,3-dimethylpiperazine-2,5-dione]: the “Inhibition of TGF-β mediated by TSP-1 cell-based assay (result in words)” value in the series with TGF-β mediated by TSP-1 is “Inactive”.
With `CC1(C)NC(=O)[C@H](Cc2ccc(C(N)=O)cc2)NC1=O` [Compound 11, (S)-4-((5,5-dimethyl-3,6-dioxopiperazin-2-yl)methyl)benzamide], in the series on TGF-β mediated by TSP-1, the inhibition at 0.01 µM amounted to 25%, the inhibition at 0.1 µM is 39% and the inhibition at 1 µM turned out to be 40%.
In the case of `NC(=O)c1ccc(C[C@@H]2NC(=O)CNC2=O)cc1` [Compound 12, (S)-4-((3,6-dioxopiperazin-2-yl)methyl)benzamide], in the series on TGF-β mediated by TSP-1, the inhibition at 0.01 µM amounted to 40%, the inhibition at 0.1 µM came to 65.6% and the inhibition at 1 µM was 68%.
Taken in the same sequence, the figures for `NC(=O)c1ccc(C[C@@H]2NC(=O)C3(CCCC3)NC2=O)cc1` [Compound 13, (S)-4-((7,10-dioxo-6,9-diazaspiro[4.5]decan-8-yl)methyl)benzamide] were 8%, 24.6% and 19.6%.
In the case of `NCCC[C@@H]1NC(=O)C2(CCCC2)NC1=O` [Compound 14, (S)-8-(3-aminopropyl)-6,9-diazaspiro[4.5]decane-7,10-dione], in the series with TGF-β mediated by TSP-1, the inhibition at 0.01 µM worked out at 54%, the inhibition at 0.1 µM stood at 85% and the inhibition at 1 µM is 90%.
Taken in the same sequence, the figures for `Nc1ccc(C[C@@H]2NC(=O)C3(CCCCC3)NC2=O)cc1` [Compound 15, (S)-3-(4-aminobenzyl)-1,4-diazaspiro[5.5]undecane-2,5-dione] were 49%, 85% and 94%.
Turning to LSKL, the “block of CAG-heparanase MM cell generated TGF-β activity” value in the series on CAG-heparanase MM cells was 80%. In the series with CAG human myeloma cells, the MM tumor burden entry is “Reduces MM Tumor Burden”. Further, in the series on phospho-Smad 2, the “phospho-Smad 2 in the bone marrow” value is on record as “Reduces Phospho-Smad 2”. Further, the “osteoblast differentiation by MSCs” value with MSCs was “Increases Osteoblast Differentiation”. In the series on CAG MM cells, the “TGF-β activity (phospho-Smad 2) in CAG MM cells” value is listed as “Reduces TGF-B Activity”. In series [2], the plasma stability half-life is 2.1 min. In addition, in [3], the “necropsy findings after chronic treatment” value was “no inflammation, no tumors in all major organs, and no impairment of wound healing”.

In general, inhibition refers to the relative decrease from the control value, in per cent. The term IC50 denotes the concentration that inhibits the measured activity by half. A high value points to lower potency.
